Test results: ChEMBL document CHEMBL5042495, “Lead Optimization of Influenza Virus RNA Polymerase Inhibitors Targeting PA-PB1 Interaction” (J Med Chem, 2022)

Experiments:
[1] = tested on: Influenza A virus; experiment: Antiviral activity against Influenza A virus A/WSN/33(H1N1) strain infected in MDCK cells assessed as reduction in viral infection incubated for 48 hrs by crystal violet staining based assay; assay type: functional, organism-based
[2] = tested on: Influenza A virus; experiment: Antiviral activity against Influenza A virus A/California/7/2009(H1N1) strain infected in MDCK cells assessed as reduction in viral infection incubated for 48 hrs by crystal violet staining based assay; assay type: functional, organism-based
[3] = Cytotoxicity in dog MDCK cells assessed as reduction in cell viability incubated for 48 hrs by crystal violet staining based assay; assay type: toxicity, Canis lupus familiaris

| Structure (SMILES) | EC50 [1] [nM] | EC50 [2] [nM] | CC50 at 48 h [3] [nM] |
| --- | --- | --- | --- |
| NC(=O)c1nc(F)cnc1O [FAVIPIRAVIR] | 1900 | 2900 | – |
| Cc1ccc2[nH]c(=O)c(CN(Cc3ccc(C(C)(C)C)cc3)C(C)c3ccc(N(C)C)c(Cl)c3)cc2c1 (stereo unspecified) | 120 | – | 9800 |
| CCc1ccc2[nH]c(=O)c(CN(Cc3ccc(C(C)(C)C)cc3)C(C)c3ccc(OC)cc3)cc2c1 (stereo unspecified) | 220 | – | > 5000 |
| Cc1ccc2[nH]c(=O)c(CN(Cc3ccc(C(C)(C)C)cc3)[C@@H](C)c3ccc(F)cc3)cc2c1 | 500 | – | > 5000 |
| Cc1ccc2[nH]c(=O)c(CN(Cc3ccc(O)cc3)Cc3ccc(C(C)(C)C)cc3)cc2c1 | 2100 | – | 4900 |
| Cc1ccc2cc(C(C)N(Cc3ccc(F)cc3)Cc3ccc(C(C)C)cc3)c(=O)[nH]c2c1 (stereo unspecified) | 1900 | – | > 33000 |
| CN(C)c1ccc(CN(Cc2ccc(C(C)(C)C)cc2)Cc2cc3cc(Cl)ccc3[nH]c2=O)cc1 | 1500 | – | > 10000 |
| CCc1ccc2[nH]c(=O)c(CN(Cc3ccc(C(C)(C)C)cc3)Cc3ccc(F)c(F)c3)cc2c1 | 63000 | – | > 33000 |
| CCCOc1ccc(CN(Cc2ccc(C(C)(C)C)cc2)Cc2cc3cc(C)ccc3[nH]c2=O)cc1 | 3000 | – | > 5000 |
| CCc1ccc2[nH]c(=O)c(CN(Cc3ccc(C(C)(C)C)cc3)C(C)c3ccc(F)cc3)cc2c1 (stereo unspecified) | 520 | – | 2800 |
| COc1ccc(CN(Cc2ccc(C(C)(C)C)cc2)Cc2cc3cc(C)ccc3[nH]c2=O)cc1 | 330 | – | > 10000 |
| CSc1ccc(CN(Cc2ccc(C(C)(C)C)cc2)Cc2cc3cc(C)ccc3[nH]c2=O)cc1 | 510 | – | > 5000 |
| C[C@@H](c1ccc(OC(F)(F)F)cc1)N(Cc1ccc(C(C)(C)C)cc1)Cc1cc2cc(C(F)(F)F)ccc2[nH]c1=O | 260 | – | > 10000 |
| COc1ccc2[nH]c(=O)c(CN(Cc3ccc(C(C)(C)C)cc3)Cc3ccc(C(F)(F)F)c(Cl)c3)cc2c1 | 85 | – | > 10000 |
| CCc1ccc(CN(Cc2ccc(F)cc2)Cc2cc3ccc(C)cc3[nH]c2=O)cc1 | 1800 | – | > 33000 |
| COc1ccc(C(C)N(Cc2ccc(C(C)(C)C)cc2)Cc2cc3cc(Br)ccc3[nH]c2=O)cc1Cl (stereo unspecified) | 530 | – | > 10000 |
| Cc1ccc2cc(CN(Cc3ccc(C(C)C)cc3)Cc3cccc(F)c3)c(=O)[nH]c2c1 | 2100 | – | > 33000 |
| Cc1ccc2[nH]c(=O)c(CN(Cc3ccc(SC(F)F)cc3)Cc3ccc(C(C)(C)C)cc3)cc2c1 | 650 | – | > 5000 |
| Cc1ccc2[nH]c(=O)c(CN(Cc3ccc(N(C)C)cc3)Cc3ccc(C(C)(C)C)cc3)cc2c1 | 460 | – | > 5000 |
| CCc1ccc2[nH]c(=O)c(CN(Cc3ccc(C(C)(C)C)cc3)[C@@H](C)c3ccc(F)cc3)cc2c1 | 790 | – | > 5000 |
| Cc1ccc2[nH]c(=O)c(CN(Cc3ccc(C(C)(C)C)cc3)C(C)c3ccc(F)cc3)cc2c1 (stereo unspecified) | 1300 | – | > 33000 |
| Cc1ccc2[nH]c(=O)c(CN(Cc3ccc(F)cc3)Cc3ccc(C(C)(C)C)cc3)cc2c1 | 390 | – | > 27000 |
| Cc1ccc2[nH]c(=O)c(CN(Cc3ccc(OC(C)C)cc3)Cc3ccc(C(C)(C)C)cc3)cc2c1 | 1500 | – | > 5000 |
